Measurements reported in the supplement of paper PMC10307832.

Assays:
Assay in all cases: relative viability (nuclei count vs DMSO), 5 days (fraction); higher = more cells survive
[1] = compound: CC1=C(C(=O)N2C=CSC2=N1)CCN3CCC(=C(C4=CC=CC=C4)C5=CC=C(C=C5)F)CC3 + CC1(C)CCC(c2ccc(Cl)cc2)=C(CN2CCN(c3ccc(C(=O)NS(=O)(=O)c4ccc(N[C@H](CCN5CCOCC5)CSc5ccccc5)c(S(=O)(=O)C(F)(F)F)c4)cc3)CC2)C1 [Navitoclax] (partner 0.5 µM)
How it was run: (§1)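 Lung cancer cell lines, seeded in 1536-well plates, were treated the following day by pin tool with a single drug or with five library-drug doses (not always all listed) in √10 steps on top of a fixed anchor-drug dose. Cells were fixed and nuclei stained in one step after 5 days, and nuclei were counted. Relative viability is the nuclei count for treated wells divided by that for vehicle wells, reported as medians of duplicate plates.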

[2] = compound: CC1=C(C(=O)N2C=CSC2=N1)CCN3CCC(=C(C4=CC=CC=C4)C5=CC=C(C=C5)F)CC3 + CCNC(=O)c1noc(-c2cc(C(C)C)c(O)cc2O)c1-c1ccc(CN2CCOCC2)cc1 [Luminespib] (partner 0.01 µM)
How it was run: as §1

[3] = compound: CC1=C(C(=O)N2C=CSC2=N1)CCN3CCC(=C(C4=CC=CC=C4)C5=CC=C(C=C5)F)CC3 + COc1cc2c(Oc3ccc(NC(=O)C4(C(=O)Nc5ccc(F)cc5)CC4)cc3F)ccnc2cc1OCCCN1CCOCC1 [Foretinib] (partner 0.25 µM)
How it was run: as §1

[4] = compound: CC1=C(C(=O)N2C=CSC2=N1)CCN3CCC(=C(C4=CC=CC=C4)C5=CC=C(C=C5)F)CC3 + C[C@]1(O)C[C@@H](c2nc(-c3ccc4ccc(-c5ccccc5)nc4c3)c3c(N)nccn32)C1 [Linsitinib] (partner 1 µM)
How it was run: as §1

| Cell Line | relative viability ([1]; first compound 0.08 µM) | relative viability ([1]; first compound 0.253 µM) | relative viability ([1]; first compound 0.8 µM) | relative viability ([1]; first compound 2.53 µM) | relative viability ([1]; first compound 8 µM) | relative viability ([2]; first compound 0.08 µM) | relative viability ([2]; first compound 0.253 µM) | relative viability ([2]; first compound 0.8 µM) | relative viability ([2]; first compound 2.53 µM) | relative viability ([2]; first compound 8 µM) | relative viability ([3]; first compound 0.08 µM) | relative viability ([3]; first compound 0.253 µM) | relative viability ([3]; first compound 0.8 µM) | relative viability ([3]; first compound 2.53 µM) | relative viability ([3]; first compound 8 µM) | relative viability ([4]; first compound 0.08 µM) | relative viability ([4]; first compound 0.253 µM) | relative viability ([4]; first compound 0.8 µM) | relative viability ([4]; first compound 2.53 µM) | relative viability ([4]; first compound 8 µM) |
| --- | --- | --- | --- | --- | --- | --- | --- | --- | --- | --- | --- | --- | --- | --- | --- | --- | --- | --- | --- | --- |
| PC-3 [JPC-3] | 0.789 | 0.657 | 0.845 | 0.921 | 0.803 | 0.802 | 0.656 | 0.66 | 0.678 | 0.585 | 1.01 | 0.885 | 1.05 | 1.17 | 0.93 | 0.884 | 0.914 | 1.01 | 1.04 | 0.893 |
| PC-14 | 0.655 | 0.974 | 1.05 | 1.09 | 0.449 | 0.168 | 0.175 | 0.151 | 0.176 | 0.151 | 0.783 | 0.999 | 1 | 0.828 | 0.783 | 0.904 | 1.07 | 1.02 | 0.947 | 0.734 |
| RERF-LC-KJ | 0.933 | 0.769 | 0.806 | 1 | 0.681 | 1.14 | 1.12 | 1.22 | 1.24 | 0.813 | 0.794 | 0.92 | 0.917 | 0.846 | 0.561 | 0.879 | 0.933 | 0.883 | 0.832 | 0.672 |
| SK-LU-1 | 0.586 | 0.899 | 0.941 | 0.913 | 0.371 | 0.228 | 0.217 | 0.192 | 0.21 | 0.184 | 0.909 | 0.597 | 1.01 | 1.12 | 0.581 | 1.17 | 0.93 | 1.15 | 1.38 | 0.814 |
| SK-MES-1 | 1.36 | 1.21 | 1.41 | 1.47 | 0.86 | 0.947 | 0.832 | 0.689 | 0.931 | 0.594 | 0.979 | 1.07 | 0.928 | 0.731 | 0.864 | 1.1 | 1.2 | 1.08 | 1.03 | 0.789 |
| SW 1573 | 0.777 | 1.02 | 1.11 | 1.15 | 0.409 | 0.155 | 0.189 | 0.215 | 0.245 | 0.227 | 1.07 | 0.829 | 0.814 | 0.947 | 0.72 | 0.843 | 0.804 | 0.795 | 0.835 | 0.721 |
| UMC-11 | 0.288 | 0.253 | 0.294 | 0.309 | 0.276 | 1.18 | 1.05 | 1.07 | 1.11 | 0.786 | 0.948 | 1.07 | 1.08 | 1.18 | 0.692 | 1.06 | 0.972 | 1.04 | 1.33 | 0.824 |
